Nine compounds from ChEMBL document CHEMBL3046490, “Evaluation of fungicides to control circular leaf spot of persimmon caused by Mycosphaerella nawae” (Crop Prot, 2011) can be followed below.

Each structure is given as a SMILES string. ≈ marks a conversion by molar mass, not a printed value.

In one experiment the test system is Plurivorosphaerella nawae. Briefly: Antifungal activity against circular leaf spot causing Mycosphaerella nawae MY1 assessed as inhibition of mycelial growth on potato dextrose agar. Type of experiment: functional, organism-based.
As to `O=C1C2CC=CCC2C(=O)N1SC(Cl)(Cl)Cl` (stereo not given) [CAPTAN], the EC50 was > 100 µg/mL.
On to `N#Cc1c(Cl)c(Cl)c(Cl)c(C#N)c1Cl` [CHLOROTHALONIL], for which the EC50 turned out to be 33.5 µg/mL (≈ 126 µM).
Still for that read-out and setting: the result for `Cc1cc(C2CC2)nc(Nc2ccccc2)n1` [CYPRODINIL] reads 76.8 µg/mL (≈ 341 µM); that for `CC(Cc1ccc(C(C)(C)C)cc1)CN1C[C@@H](C)O[C@@H](C)C1` (stereo not given in full) [FENPROPIMORPH], 0.2 µg/mL (≈ 0.659 µM).
Still for that read-out and setting: as for `O=[N+]([O-])c1cc(C(F)(F)F)c(Cl)c([N+](=O)[O-])c1Nc1ncc(C(F)(F)F)cc1Cl` [FLUAZINAM], the figure is 24 µg/mL (≈ 51.6 µM); as for `COC(=O)N(OC)c1ccccc1COc1ccn(-c2ccc(Cl)cc2)n1` [PYRACLOSTROBIN], 1.6 µg/mL (≈ 4.13 µM); as for `CC(C)(C)C(O)(CCc1ccc(Cl)cc1)Cn1cncn1` (stereo not given) [TEBUCONAZOLE], 1.3 µg/mL (≈ 4.22 µM).
Still for that read-out and setting: the result for `COC(=O)NC(=S)Nc1ccccc1NC(=S)NC(=O)OC` [THIOPHANATE METHYL] reads 1.5 µg/mL (≈ 4.38 µM); that for `CN(C)C(=S)SSC(=S)N(C)C` [THIRAM], 13.8 µg/mL (≈ 57.4 µM).

The next experiment relates to Monilinia fructicola. Briefly: Antifungal activity against Monilinia fructicola isolated from peach fields assessed as mycelial growth inhibition. Type of experiment: functional, organism-based.
`COC(=O)N(OC)c1ccccc1COc1ccn(-c2ccc(Cl)cc2)n1` [PYRACLOSTROBIN]: the EC50 is given as 0.04 ppm.

For another experiment, the system named is Plurivorosphaerella nawae. Briefly: Antifungal activity against circular leaf spot causing Mycosphaerella nawae MY5 assessed as inhibition of mycelial growth on potato dextrose agar. Type of experiment: functional, organism-based.
As for `O=C1C2CC=CCC2C(=O)N1SC(Cl)(Cl)Cl` (stereo not given) [CAPTAN], the EC50 was > 100 µg/mL.
`N#Cc1c(Cl)c(Cl)c(Cl)c(C#N)c1Cl` [CHLOROTHALONIL]: the EC50 came to 17 µg/mL (≈ 63.9 µM).
`Cc1cc(C2CC2)nc(Nc2ccccc2)n1` [CYPRODINIL]: the EC50 was 52.4 µg/mL (≈ 233 µM).
On the same count and under the same terms, as for `CC(Cc1ccc(C(C)(C)C)cc1)CN1C[C@@H](C)O[C@@H](C)C1` (stereo not given in full) [FENPROPIMORPH], the figure is 0.4 µg/mL (≈ 1.32 µM); as for `O=[N+]([O-])c1cc(C(F)(F)F)c(Cl)c([N+](=O)[O-])c1Nc1ncc(C(F)(F)F)cc1Cl` [FLUAZINAM], 50.6 µg/mL (≈ 109 µM); as for `COC(=O)N(OC)c1ccccc1COc1ccn(-c2ccc(Cl)cc2)n1` [PYRACLOSTROBIN], 1.9 µg/mL (≈ 4.9 µM).
Same read-out and setting: as for `CC(C)(C)C(O)(CCc1ccc(Cl)cc1)Cn1cncn1` (stereo not given) [TEBUCONAZOLE], the figure is 0.7 µg/mL (≈ 2.27 µM); as for `COC(=O)NC(=S)Nc1ccccc1NC(=S)NC(=O)OC` [THIOPHANATE METHYL], 1.7 µg/mL (≈ 4.96 µM).
On the same count and under the same terms, as for `CN(C)C(=S)SSC(=S)N(C)C` [THIRAM], the figure is 26.8 µg/mL (≈ 111 µM).

The subject of another experiment is Zasmidium citrigriseum. Briefly: Antifungal activity against citrus greasy spot disease caused by Zasmidium citri assessed as inhibition of mycelial growth on potato dextrose agar. It counts as functional, organism-based.
As for `COC(=O)N(OC)c1ccccc1COc1ccn(-c2ccc(Cl)cc2)n1` [PYRACLOSTROBIN], the EC50 came to 0.03 ppm.
